We go through eight molecules from ChEMBL document CHEMBL1137245, “Synthesis and anti-HIV-1 activity of a novel series of 1,4,2-benzodithiazine-dioxides” (Bioorg Med Chem Lett, 2006).

The subject of one series is CCRF-CEM. The series is described as follows: Cytotoxicity against CEM cells. The series is classed as cell-based. The settings on record: Homo sapiens.
For series [1], the system named is Human immunodeficiency virus 1. Description: Antiviral activity against HIV1 in CEM cells. The series is classed as functional, organism-based. The note with it: Human immunodeficiency virus 1, CCRF-CEM.
A short description of series [2]: Therapeutic index, ratio of IC50 for CEM cells to EC50 for HIV1. The series is classed as cell-based, CCRF-CEM. The settings on record: human, read-out: Ratio IC50/EC50.

Where only a bound is given, the exact number is not on record here.

Usually IC50 stands for the point on the concentration scale where inhibition reaches its midpoint. Low readings indicate inhibition by little substance, high ones a need for much substance. A word on the EC50: it is the concentration at which the effect is half-maximal. Read a high EC50 as weaker potency. In the series on CCRF-CEM, `Cc1cc(Cl)cc2c1S(=O)(=O)N1CCCN=C1S2` gave a 50% inhibitory concentration (IC50) of 106 µM. The molecule further displayed an EC50 in series [1] of 0.09 µM. In addition, in series [2], the selectivity ratio amounted to 1180.
As to `Cc1cc2c(cc1Cl)SC1=NCC(C)CN1S2(=O)=O` (stereo not drawn), the IC50 with CCRF-CEM is above 200 µM. Besides, the midpoint of the response in series [1], the EC50, lay at 162 µM. For the same molecule, the selectivity ratio in series [2] is above 1.23.
The matching figures for `Cc1cc2c(cc1Cl)SC1=NCCN1S2(=O)=O`: 135 µM, 16.5 µM and 8.2.
In the series with CCRF-CEM, `Cc1cc2c(cc1Cl)SC1=NCCCN1S2(=O)=O` registered a concentration for half-maximal inhibition (IC50) above 200 µM. This molecule also registered an EC50 in series [1] of 0.98 µM. In addition, the selectivity ratio in series [2] was above 204.
The matching figures for `Cc1cc2c(cc1Cl)SC1=NCC(C)N1S2(=O)=O` (stereo not drawn): 107 µM, 8.52 µM and 12.6.
For `Cc1cc2c(cc1Cl)SC1=NC(CCl)CN1S2(=O)=O` (stereo not drawn) the same measures were 28 µM, 4.04 µM and 6.4.
For the molecule `Cc1cc2c(cc1Cl)SC1=NC(CSCc3ccccc3)CN1S2(=O)=O` (stereo not drawn), the IC50 in the series on CCRF-CEM amounted to 135 µM. The molecule also came in with an EC50 in series [1] above 200 µM.
In the case of `O=S1(=O)c2ccc(Cl)cc2SC2=NCCCN21`, in the series with CCRF-CEM, the 50% inhibitory concentration (IC50) is above 200 µM. Also, the EC50 in series [1] is 4.75 µM. The selectivity ratio in series [2] is above 42.1.
